According to patent publication US20090105217A1, “2-PHENYL-5-AMINO-1,3,4-OXADIAZOLES AND THEIR USE AS NICOTINIC ACETYLCHOLINE RECEPTOR LIGANDS” (priority 2007, published 2009):

Each compound was assayed against T1, human α7 nAChR (Homo sapiens, UniProt P36544) (assay: α7 nAChR FLIPR (Fluorometric Imaging Plate Reader) Ca2+ assay, agonist EC50). Details: GH4C1 cells stably transfected with human α7 nAChR; Fluo-4 Ca2+ fluorescence; Examples 194 to 205 tested as the HCl salt; read-out: pEC50 value (negative logarithm of the agonist EC50) (converted).
T1 construct: host or cells: GH4C1 cells (pituitary tumor, immortalized cell line)
T1 sequence (P36544 23-502): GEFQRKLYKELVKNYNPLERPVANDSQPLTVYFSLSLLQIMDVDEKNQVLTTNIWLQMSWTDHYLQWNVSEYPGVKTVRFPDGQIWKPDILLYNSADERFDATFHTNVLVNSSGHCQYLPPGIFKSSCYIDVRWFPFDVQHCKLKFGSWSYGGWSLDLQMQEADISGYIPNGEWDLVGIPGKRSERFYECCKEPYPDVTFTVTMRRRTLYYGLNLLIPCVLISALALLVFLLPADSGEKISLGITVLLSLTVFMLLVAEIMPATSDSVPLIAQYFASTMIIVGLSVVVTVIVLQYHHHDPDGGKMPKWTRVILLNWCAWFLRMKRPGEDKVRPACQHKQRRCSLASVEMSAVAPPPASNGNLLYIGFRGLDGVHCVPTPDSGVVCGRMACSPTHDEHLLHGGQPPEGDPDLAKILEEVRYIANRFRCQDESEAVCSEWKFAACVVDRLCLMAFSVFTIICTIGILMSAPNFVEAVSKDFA
Type: cell-based
How it was run: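 GH4C1 cells stably expressing human α7 nAChR, loaded with 2 μM Fluo-4 for 45–60 min at 37 °C in HEPES buffer pH 7.3 with 2 mM CaCl2 and 2.5 mM probenecid. Peak calcium fluorescence (ex 488, em 510–580 nm) after compound addition fitted for agonist EC50, reported as pEC50.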
CCN(CC)CCCCNc1nnc(-c2ccc(NC(=O)c3ccccc3)cc2F)o1 [Example 112, N-[4-(5-{[4-(diethylamino)butyl]amino}-1,3,4-oxadiazol-2-yl)-3-fluorophenyl]benzamide] was tested, and the EC50 was ≤ 100 nM.
With O=C(Nc1ccc(-c2nnc(NCCCN3CCCCC3)o2)c(F)c1)c1ccccc1 [Example 113, N-[3-fluoro-4-(5-{[3-(1-piperidinyl)propyl]amino}-1,3,4-oxadiazol-2-yl)phenyl]benzamide] the EC50 was ≤ 1000 nM.
O=C(Nc1ccc(-c2nnc(NCCCCN3CCCCC3)o2)c(F)c1)c1ccccc1 [Example 114, N-[3-fluoro-4-(5-{[4-(1-piperidinyl)butyl]amino}-1,3,4-oxadiazol-2-yl)phenyl]benzamide] was tested, and the EC50 was ≤ 100 nM.
In the case of O=C(Nc1ccc(-c2nnc(NCCCCN3CCCC3)o2)cc1)c1ccccc1 [Example 115, N-[4-(5-{[4-(1-pyrrolidinyl)butyl]amino}-1,3,4-oxadiazol-2-yl)phenyl]benzamide], the EC50 was ≤ 100 nM.
O=C(Nc1ccc(-c2nnc(NCCCCN3CCOCC3)o2)cc1)c1ccccc1 [Example 116, N-[4-(5-{[4-(4-morpholinyl)butyl]amino}-1,3,4-oxadiazol-2-yl)phenyl]benzamide] was tested, and the EC50 was ≤ 1000 nM.
For O=C(Nc1ccc(-c2nnc(NCCCN3CCOCC3)o2)cc1)c1ccccc1 [Example 117, N-[4-(5-{[3-(4-morpholinyl)propyl]amino}-1,3,4-oxadiazol-2-yl)phenyl]benzamide], the EC50 was ≤ 1000 nM.
For CCN(CC)CCCNc1nnc(-c2ccc(NC(=O)c3ccccc3)cc2)o1 [Example 118, N-[4-(5-{[3-(diethylamino)propyl]amino}-1,3,4-oxadiazol-2-yl)phenyl]benzamide], the EC50 was ≤ 1000 nM.
In the case of CCN(CC)CCCCNc1nnc(-c2ccc(NC(=O)c3ccccc3)cc2)o1 [Example 119, N-[4-(5-{[4-(diethylamino)butyl]amino}-1,3,4-oxadiazol-2-yl)phenyl]benzamide], the EC50 was ≤ 100 nM.
In the case of COc1cc(NC(=O)c2ccccc2F)ccc1-c1nnc(NCCCN2CCN3CCC2CC3)o1 [Example 120, N-[4-(5-{[3-(1,4-diazabicyclo[3.2.2]non-4-yl)propyl]amino}-1,3,4-oxadiazol-2-yl)-3-(methyloxy)phenyl]-2-fluorobenzamide], the EC50 was ≤ 100 nM.
In the case of O=C(Nc1ccc(-c2nnc(NCCCN3CCN4CCC3CC4)o2)c(F)c1)c1ccccc1F [Example 121, N-[4-(5-{[3-(1,4-diazabicyclo[3.2.2]non-4-yl)propyl]amino}-1,3,4-oxadiazol-2-yl)-3-fluorophenyl]-2-fluorobenzamide], the EC50 was ≤ 100 nM.
In the case of COc1cc(NC(=O)c2ccccc2)ccc1-c1nnc(NCCCN2CCN3CCC2CC3)o1 [Example 122, N-[4-(5-{[3-(1,4-diazabicyclo[3.2.2]non-4-yl)propyl]amino}-1,3,4-oxadiazol-2-yl)-3-(methyloxy)phenyl]benzamide], the EC50 was ≤ 100 nM.
For O=C(Nc1ccc(-c2nnc(NCCCN3CCN4CCC3CC4)o2)cc1)c1ccccc1 [Example 123, N-[4-(5-{[3-(1,4-diazabicyclo[3.2.2]non-4-yl)propyl]amino}-1,3,4-oxadiazol-2-yl)phenyl]benzamide], the EC50 was ≤ 100 nM.
With O=C(Nc1ccc(-c2nnc(NCCCN3CCN4CCC3CC4)o2)c(F)c1)c1ccccc1 [Example 124, N-[4-(5-{[3-(1,4-diazabicyclo[3.2.2]non-4-yl)propyl]amino}-1,3,4-oxadiazol-2-yl)-3-fluorophenyl]benzamide] the EC50 was ≤ 100 nM.
For O=C(Nc1ccc(-c2nnc(NCCCN3CCN4CCC3CC4)o2)c(Cl)c1)c1ccccc1F [Example 125, N-[3-chloro-4-(5-{[3-(1,4-diazabicyclo[3.2.2]non-4-yl)propyl]amino}-1,3,4-oxadiazol-2-yl)phenyl]-2-fluorobenzamide], the EC50 was ≤ 100 nM.
With COc1cc(NC(=O)c2ccccc2F)ccc1-c1nnc(NCCCN2CCCC2)o1 [Example 126, 2-fluoro-N-[3-(methyloxy)-4-(5-{[3-(1-pyrrolidinyl)propyl]amino}-1,3,4-oxadiazol-2-yl)phenyl]benzamide] the EC50 was ≤ 1000 nM.
